Reference: paper PMC8991007, “Benzylic Dehydroxylation of Echinocandin Antifungal Drugs Restores Efficacy against Resistance Conferred by Mutated Glucan Synthase” (Journal of the American Chemical Society, 2022)
≈ marks a conversion by molar mass, not a printed value. *1 amine or outer side, *2 acyl side, *3 side chain or, on linkers, in order; H or OH if unused. Where a SMILES comes first, the peptide text is derived from it. Bridges are numbered along the chain shown (N, C = ends). [ ]: non-standard residue; d: D form. The star is where a group is joined. hTyr(3S-OH,4S-OH,3'-OSO3H) = N[C@H](C(=O)O)[C@H](O)[C@@H](O)c1ccc(O)c(OS(=O)(=O)O)c1; Orn(4R-OH,5R-OH) = O=C([C@H](C[C@@H](O)[C@@H](O)N[*:3])N[*:1])[*:2]; Pro(3S-OH,4S-Me) = C[C@H]1CN[C@H](C(=O)O)[C@H]1O; X1 = CCCCCOc1ccc(-c2cc(-c3ccc(C(=O)*)cc3)no2)cc1; Gln(3R-OH) = NC(=O)C[C@@H](O)[C@H](N)C(=O)O; Hyp = O=C(O)[C@@H]1C[C@@H](O)CN1

Tests used:
C. albicans = experiment: Minimum inhibitory concentration broth double-dilution assay; assay type: cell-based, Candida albicans; conditions: 24 h, 30 °C
Method: (§1) The antifungal activities of compounds 1 and 2 were evaluated against a panel of 50 strains of C. albicans and C. glabrata (Table S4), including echinocandin-resistant strains that were constructed by introducing mutations within and near the defined hotspots in the FKS1 and/or FKS2 genes.[27] To evaluate antifungal activity, we determined MIC values. The MIC was defined as the lowest drug concentration that led to turbidity (measured at 600 nm) of less than or equal to 35% of that of the untreated culture. As controls, we tested CSF, MCF, ANF, and RZF.
(§2) All of the tested compounds were dissolved in anhydrous DMSO to a concentration of 5 mg/mL. Candida strains were streaked from a glycerol stock onto YPAD agar plates and grown for 24 h at 30 °C. Colonies were suspended in 1 mL of PBS and diluted to an O.D. of 0.01 at 600 nm with YPAD broth and added into flat-bottom 96-well microplates (Corning) containing a gradient of twofold dilutions per tested compound with concentrations ranging from 64 to 0.0009 μg/mL. Control wells with no drug and blank wells without yeast cells containing YPAD only were also prepared. […] Each concentration was tested in triplicate, and results were confirmed by at least two independent sets of experiments.

C. glabrata = experiment: as above; assay type: cell-based, Candida glabrata; conditions: 24 h, 30 °C
Method: as §1, §2

[1] = #2 C. albicans DPL1015 (DP-A15)
[2] = #3 C. albicans DPL1016 (DP-A15-10)

## CC[C@H](C)C[C@H](C)CCCCCCCCC(=O)N[C@H]1C[C@@H](O)[C@@H](NCCN)NC(=O)[C@@H]2[C@@H](O)CCN2C(=O)[C@H]([C@H](O)CCN)NC(=O)[C@H]([C@H](O)[C@@H](O)c2ccc(O)cc2)NC(=O)[C@@H]2C[C@@H](O)CN2C(=O)[C@H]([C@@H](C)O)NC1=O [CSF, caspofungin]
C. albicans; #1 C. albicans Sc5314
  MIC: 0.015 mg/L (≈ 0.0137 µM)
C. albicans; [1]
  MIC: 1 mg/L (≈ 0.915 µM)
C. albicans; [2]
  MIC: > 64 mg/L
C. albicans; #4 C. albicans T-2068 (DP-C42)
  MIC: 32 mg/L (≈ 29.3 µM)
C. albicans; #5 C. albicans T-2069 (DP-85)
  MIC: 16 mg/L (≈ 14.6 µM)
C. albicans; #6 C. albicans (DP-89)
  MIC: > 64 mg/L
C. albicans; #7 C. albicans T-2076 (DP-194)
  MIC: 1 mg/L (≈ 0.915 µM)
C. albicans; #8 C. albicans T-2077 (DP-205)
  MIC: 16 mg/L (≈ 14.6 µM)
C. glabrata; #9 C. glabrata EF1620
  MIC: 0.031 mg/L (≈ 0.0284 µM)
C. glabrata; #10 C. glabrata TGL00277
  MIC: > 64 mg/L
C. glabrata; #11 C. glabrata TGL00275
  MIC: 32 mg/L (≈ 29.3 µM)
C. glabrata; #12 C. glabrata CST78
  MIC: 0.015 mg/L (≈ 0.0137 µM)
C. glabrata; #13 C. glabrata TGL00265
  MIC: > 64 mg/L
C. glabrata; #14 C. glabrata TGL00264
  MIC: 4 mg/L (≈ 3.66 µM)
C. glabrata; #15 C. glabrata TGL00263
  MIC: 64 mg/L (≈ 58.5 µM)
C. glabrata; #16 C. glabrata TGL00065
  MIC: > 64 mg/L
C. glabrata; #17 C. glabrata CST34
  MIC: 0.015 mg/L (≈ 0.0137 µM)
C. glabrata; #18 C. glabrata TGL00258
  MIC: > 64 mg/L
C. glabrata; #19 C. glabrata TGL00256
  MIC: 16 mg/L (≈ 14.6 µM)
C. glabrata; #20 C. glabrata TGL00107
  MIC: > 64 mg/L
C. glabrata; #21 C. glabrata TGL00056
  MIC: > 64 mg/L
C. glabrata; #22 C. glabrata M12
  MIC: 0.015 mg/L (≈ 0.0137 µM)
C. glabrata; #23 C. glabrata TGL00270
  MIC: > 64 mg/L
C. glabrata; #24 C. glabrata TGL00269
  MIC: 16 mg/L (≈ 14.6 µM)
C. glabrata; #25 C. glabrata TGL00268
  MIC: > 64 mg/L
C. glabrata; #26 C. glabrata TGL00268
  MIC: > 64 mg/L
C. glabrata; #27 C. glabrata EB0911
  MIC: 0.031 mg/L (≈ 0.0284 µM)
C. glabrata; #28 C. glabrata TGL00261
  MIC: > 64 mg/L
C. glabrata; #29 C. glabrata TGL00109
  MIC: 64 mg/L (≈ 58.5 µM)
C. glabrata; #30 C. glabrata TGL00259
  MIC: > 64 mg/L

## CCCCCOc1ccc(-c2cc(-c3ccc(C(=O)N[C@H]4C[C@@H](O)[C@@H](O)NC(=O)[C@@H]5[C@@H](O)[C@@H](C)CN5C(=O)[C@H]([C@H](O)CC(N)=O)NC(=O)[C@H]([C@H](O)[C@@H](O)c5ccc(O)c(OS(=O)(=O)O)c5)NC(=O)[C@@H]5C[C@@H](O)CN5C(=O)[C@H]([C@@H](C)O)NC4=O)cc3)no2)cc1 [MCF, micafungin] (X1-[Orn(4R-OH,5R-OH)]T[Hyp][hTyr(3S-OH,4S-OH,3'-OSO3H)][Gln(3R-OH)][Pro(3S-OH,4S-Me)]; lactam 1-C)
C. albicans; #1 C. albicans Sc5314
  MIC: 0.031 mg/L (≈ 0.0244 µM)
C. albicans; [1]
  MIC: 1 mg/L (≈ 0.787 µM)
C. albicans; [2]
  MIC: 16 mg/L (≈ 12.6 µM)
C. albicans; #4 C. albicans T-2068 (DP-C42)
  MIC: 4 mg/L (≈ 3.15 µM)
C. albicans; #5 C. albicans T-2069 (DP-85)
  MIC: 2 mg/L (≈ 1.57 µM)
C. albicans; #6 C. albicans (DP-89)
  MIC: 4 mg/L (≈ 3.15 µM)
C. albicans; #7 C. albicans T-2076 (DP-194)
  MIC: 1 mg/L (≈ 0.787 µM)
C. albicans; #8 C. albicans T-2077 (DP-205)
  MIC: 2 mg/L (≈ 1.57 µM)
C. glabrata; #9 C. glabrata EF1620
  MIC: 0.015 mg/L (≈ 0.0118 µM)
C. glabrata; #10 C. glabrata TGL00277
  MIC: 8 mg/L (≈ 6.3 µM)
C. glabrata; #11 C. glabrata TGL00275
  MIC: 2 mg/L (≈ 1.57 µM)
C. glabrata; #12 C. glabrata CST78
  MIC: 0.004 mg/L (≈ 0.00315 µM)
C. glabrata; #13 C. glabrata TGL00265
  MIC: 1 mg/L (≈ 0.787 µM)
C. glabrata; #14 C. glabrata TGL00264
  MIC: > 64 mg/L
C. glabrata; #15 C. glabrata TGL00263
  MIC: 0.125 mg/L (≈ 0.0984 µM)
C. glabrata; #16 C. glabrata TGL00065
  MIC: 32 mg/L (≈ 25.2 µM)
C. glabrata; #17 C. glabrata CST34
  MIC: 0.002 mg/L (≈ 0.00157 µM)
C. glabrata; #18 C. glabrata TGL00258
  MIC: > 64 mg/L
C. glabrata; #19 C. glabrata TGL00256
  MIC: 0.125 mg/L (≈ 0.0984 µM)
C. glabrata; #20 C. glabrata TGL00107
  MIC: > 64 mg/L
C. glabrata; #21 C. glabrata TGL00056
  MIC: > 64 mg/L
C. glabrata; #22 C. glabrata M12
  MIC: 0.002 mg/L (≈ 0.00157 µM)
C. glabrata; #23 C. glabrata TGL00270
  MIC: 16 mg/L (≈ 12.6 µM)
C. glabrata; #24 C. glabrata TGL00269
  MIC: 0.125 mg/L (≈ 0.0984 µM)
C. glabrata; #25 C. glabrata TGL00268
  MIC: > 64 mg/L
C. glabrata; #26 C. glabrata TGL00268
  MIC: > 64 mg/L
C. glabrata; #27 C. glabrata EB0911
  MIC: 0.008 mg/L (≈ 0.0063 µM)
C. glabrata; #28 C. glabrata TGL00261
  MIC: 4 mg/L (≈ 3.15 µM)
C. glabrata; #29 C. glabrata TGL00109
  MIC: > 64 mg/L
C. glabrata; #30 C. glabrata TGL00259
  MIC: 32 mg/L (≈ 25.2 µM)
